Tested on: P12-Ichikawa
Test: cell viability relative to DMSO control; higher = less cytotoxic
Details: 48 h
How it was run: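 Viability was expressed as a per-plate percentage of DMSO wells, with cell-free wells as background. Leukemia cells (NOMO1 or SEM at 500 cells/well, P12-Ichikawa at 1000 cells/well) were adapted for at least four passages in each medium and seeded in 1536-well plates (5 μl). Library compounds in DMSO were pin-dosed over an 11-point threefold series from 47 μM to 0.79 nM, and CellTiter-Glo One luminescence was read after 48 h at 37°C.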

[1] = HPLM + 10% dialyzed FBS, 0.000781 µM
[2] = HPLM + 10% dialyzed FBS, 0.00234 µM
[3] = HPLM + 10% dialyzed FBS, 0.00702 µM
[4] = HPLM + 10% dialyzed FBS, 0.0211 µM
[5] = HPLM + 10% dialyzed FBS, 0.0632 µM
[6] = HPLM + 10% dialyzed FBS, 0.19 µM
[7] = HPLM + 10% dialyzed FBS, 0.569 µM
[8] = HPLM + 10% dialyzed FBS, 1.71 µM
[9] = HPLM + 10% dialyzed FBS, 5.12 µM
[10] = HPLM + 10% dialyzed FBS, 15.4 µM
[11] = HPLM + 10% dialyzed FBS, 46.1 µM
[12] = RPMI 5 mM glucose + 10% FBS, 0.000781 µM
[13] = RPMI 5 mM glucose + 10% FBS, 0.00234 µM
[14] = RPMI 5 mM glucose + 10% FBS, 0.00702 µM
[15] = RPMI 5 mM glucose + 10% FBS, 0.0211 µM
[16] = RPMI 5 mM glucose + 10% FBS, 0.0632 µM
[17] = RPMI 5 mM glucose + 10% FBS, 0.19 µM
[18] = RPMI 5 mM glucose + 10% FBS, 0.569 µM
[19] = RPMI 5 mM glucose + 10% FBS, 1.71 µM
[20] = RPMI 5 mM glucose + 10% FBS, 5.12 µM
[21] = RPMI 5 mM glucose + 10% FBS, 15.4 µM
[22] = RPMI 5 mM glucose + 10% FBS, 46.1 µM
[23] = RPMI 5 mM glucose + 10% dialyzed FBS, 0.000781 µM
[24] = RPMI 5 mM glucose + 10% dialyzed FBS, 0.00234 µM
[25] = RPMI 5 mM glucose + 10% dialyzed FBS, 0.00702 µM
[26] = RPMI 5 mM glucose + 10% dialyzed FBS, 0.0211 µM
[27] = RPMI 5 mM glucose + 10% dialyzed FBS, 0.0632 µM
[28] = RPMI 5 mM glucose + 10% dialyzed FBS, 0.19 µM
[29] = RPMI 5 mM glucose + 10% dialyzed FBS, 0.569 µM
[30] = RPMI 5 mM glucose + 10% dialyzed FBS, 1.71 µM
[31] = RPMI 5 mM glucose + 10% dialyzed FBS, 5.12 µM
[32] = RPMI 5 mM glucose + 10% dialyzed FBS, 15.4 µM
[33] = RPMI 5 mM glucose + 10% dialyzed FBS, 46.1 µM

| SMILES | cell viability [1] [%] | cell viability [2] [%] | cell viability [3] [%] | cell viability [4] [%] | cell viability [5] [%] | cell viability [6] [%] | cell viability [7] [%] | cell viability [8] [%] | cell viability [9] [%] | cell viability [10] [%] | cell viability [11] [%] | cell viability [12] [%] | cell viability [13] [%] | cell viability [14] [%] | cell viability [15] [%] | cell viability [16] [%] | cell viability [17] [%] | cell viability [18] [%] | cell viability [19] [%] | cell viability [20] [%] | cell viability [21] [%] | cell viability [22] [%] | cell viability [23] [%] | cell viability [24] [%] | cell viability [25] [%] | cell viability [26] [%] | cell viability [27] [%] | cell viability [28] [%] | cell viability [29] [%] | cell viability [30] [%] | cell viability [31] [%] | cell viability [32] [%] | cell viability [33] [%] |
| --- | --- | --- | --- | --- | --- | --- | --- | --- | --- | --- | --- | --- | --- | --- | --- | --- | --- | --- | --- | --- | --- | --- | --- | --- | --- | --- | --- | --- | --- | --- | --- | --- | --- |
| OC1=CC=C(C=C1)\C2=C\C(=O)C3=C(O2)C=C(O)C=C3O | 110 | 112 | 113 | 119 | 114 | 120 | 116 | 108 | 107 | 108 | 109 | 111 | 109 | 112 | 111 | 105 | 106 | 104 | 105 | 104 | 109 | 96.6 | 117 | 120 | 119 | 122 | 118 | 113 | 115 | 109 | 110 | 103 | 96.4 |
| Cc1ccc(-c2ncn(-c3ccc(Nc4nccc(-c5cccc(N6CCOCC6)c5)n4)cc3)n2)cn1 | 93.9 | 94.5 | 94.8 | 98.2 | 96.1 | 90.7 | 5.93 | 5.41 | 5.42 | 4.29 | 4.16 | 92.2 | 92.8 | 90.2 | 89.8 | 94.5 | 83.6 | 3.59 | 3.74 | 2.21 | 3.15 | 3.43 | 82.2 | 87.5 | 80.8 | 86.6 | 87.6 | 96.3 | 3.87 | 3.59 | 2.81 | 2.93 | 2.94 |
| CCN1C[C@]2(OC(=O)c3ccccc3NC(C)=O)CC[C@H](OC)[C@@]34[C@@H]2C[C@@H]([C@@H]13)[C@@]1(O)C[C@H](OC)[C@H]2C[C@@H]4[C@]1(O)[C@H]2OC | 91.8 | 109 | 110 | 113 | 114 | 109 | 106 | 111 | 103 | 106 | 108 | 105 | 109 | 116 | 104 | 113 | 111 | 119 | 108 | 99.1 | 105 | 114 | 103 | 111 | 115 | 110 | 117 | 106 | 115 | 110 | 104 | 107 | 102 |
| O=C1N\2CCC3=C([NH]C4=C3C=CC=C4)C2=N/C5=CC=CC=C15 | 119 | 120 | 128 | 126 | 129 | 130 | 129 | 129 | 132 | 113 | 92.3 |  |  |  |  |  |  |  |  |  |  |  |  |  |  |  |  |  |  |  |  |  |  |
| C#C[C@]1(O)CC[C@H]2[C@@H]3CCc4cc(OC)ccc4[C@H]3CC[C@@]21C | 118 | 104 | 111 | 106 | 110 | 98.5 | 111 | 102 | 101 | 109 | 98.5 | 110 | 101 | 112 | 106 | 113 | 106 | 106 | 108 | 90.7 | 111 | 97.6 | 103 | 101 | 100 | 107 | 114 | 111 | 107 | 107 | 101 | 102 | 97.6 |
| CC(=O)[C@H]1CC[C@H]2[C@@H]3CCC4=CC(=O)CC[C@]4(C)[C@H]3CC[C@]12C | 106 | 114 | 120 | 112 | 118 | 115 | 125 | 118 | 109 | 94.7 | 110 |  |  |  |  |  |  |  |  |  |  |  | 98.1 | 112 | 108 | 118 | 120 | 125 | 120 | 116 | 105 | 91.9 | 114 |
| CC(C)c1ccccc1Cc1cc(C(=O)Nc2ccc([S+](=O)([O-])c3ccccc3C(C)(C)C)cc2)c(O)c(O)c1O | 112 | 112 | 111 | 113 | 111 | 110 | 106 | 102 | 101 | 97.2 | 91.5 | 112 | 116 | 116 | 114 | 118 | 115 | 107 | 107 | 108 | 103 | 87.7 | 111 | 112 | 117 | 108 | 107 | 114 | 108 | 107 | 97.1 | 93.3 | 92.9 |
| CN(C)CCCNC(=O)c1ccc(-c2cc(O)c3ncccc3c2)cc1 | 102 | 102 | 106 | 107 | 106 | 111 | 93.9 | 104 | 101 | 95.2 | 82.6 | 95.7 | 97.4 | 101 | 104 | 111 | 89.6 | 93.3 | 95.5 | 92 | 99.8 | 63.6 | 92.3 | 97.9 | 96.8 | 97.5 | 103 | 95.1 | 98.5 | 90.6 | 83.4 | 100 | 71.1 |

Reference: the supplement of paper PMC11451515
